Measured values: PubChem BioAssay AID1963445 (Molecular Pharmacology Branch, DTP, NCI, 2024)
pIC50: −log10 of the molar value.

System: MCF7 complex spheroid growth, % test/control
Experiment: Anticancer human tumor MCF7 cell line growth inhibition [Asc];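 also: spheroids exposed to compounds for 7 days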;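 as to viability, T/C: 100% = DMSO vehicle control wells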
Details: for pIC50: curve of first compound; for viability, T/C: stronger effect = lower value
Procedure: Multicellular complex tumor spheroid response to apoptosis pathway targeting inhibitors Alrizomadlin, Pelcitoclax, and Dasminapant in combination with a variety of drugs and investigational agents in selected tumor cell lines
The MDM2 inhibitor alrizomadlin, the Bcl-2/Bcl-xL inhibitor pelcitoclax, and the IAPs inhibitor dasminapant were evaluated both individually and in combination with standard of care and investigational anticancer small molecules within a complex spheroid model of solid tumors. . Complex spheroids include a stromal component modeled by human endothelial cells (HUVEC) and fibroblasts modeled by human mesenchymal stem cells (MSCs). The concentration ranges selected for each drug and investigational agent were based upon clinically achievable concentrations if the clinical Cmax of the agent was known.
Compounds. The drugs and investigational agents: alrizomadlin (APG-115; NSC831270), pelcitoclax (APG-1252; NSC835773), dasminapant (APG-1387;NSC834197), TAK-243 (NSC785004), copanlisib (NSC809693), olaparib (NSC753686), talazoparib (NSC767125), cobimetinib (NSC 768068), eltanexor (KPT-8602, NSC 794443), abemaciclib (NSC 768073), sotorasib (NSC818433), adagrasib (NSC 831453), MRTX-1133 (NSC 836407), Iadademestat (ORY1001, NSC 806812), and RMC-4630 (NSC839698), were obtained from the NCI Developmental Therapeutics Program Chemical Repository. The FDA-approved anticancer drug set is available from the Developmental Therapeutics Program at https://dtp.cancer.gov/organization/dscb/obtaining/available plates.htm. […] The stock solutions were prepared in dimethyl sulfoxide (DMSO, Sigma-Aldrich, St. Louis, MO, cat. D2650) at 800-fold the tested concentration and stored at -70 degrees C prior to their use. All drugs and investigational agents were tested over a range starting from a high concentration at or near the clinical Cmax and decreasing in half-log increments. If the clinical Cmax for an agent had not been determined, the highest concentration tested was 10 microM.
The patient-derived cancer (PDC) cell lines include five colon adenocarcinomas: 186277-243-T-J2-PDC, 616215-338-R-J1-PDC, 439559-082-T-J2-PDC, 463943-066-T-J2-PDC, and 519858-162-T-J1-PDC; three pancreatic carcinomas: 323965-272-R-J2-PDC, 521955-158-R6-J3-PDC, and 521955-158-R2-J5-PDC; two uterine sarcomas: 327498-152-R-J2-PDC and 993429-296-R-J1-PDC; two rhabdomyosarcomas: 755483-174-R-J1-PDC and 772245-204-R-J1-PDC; two soft tissue sarcomas: 126254-015-R-J1-PDC and 494315-158-R-J1-PDC; two malignant fibrous histiocytomas: 317291-083-R-J1-PDC and 596521-263-R-J1-PDC; two breast carcinomas: 171881-019-R-J1-PDC and 885512-296-R-J2-PDC; and one ovarian carcinoma: 6556581-035-R-J-PDC were obtained from the NCI PDMR, (https://pdmr.cancer.gov). The established cell lines HSSY-2 synovial sarcoma (RRID:CVCL 8719), SYO-1 synovial sarcoma (RRID:CVCL_7146), MPNST malignant peripheral neural sheath tumor were obtained from the Sloan Kettering Institute. The following established cell lines were purchased from the American Type Culture Collection (ATCC, Manassas, VA), Sor the received from the NCI repository:, PANC-1 pancreatic carcinoma (CRL-1469, RRID:CVCL_0480), OVCAR-5 ovarian carcinoma (RRID:CVCL_1628), OVCAR-8 ovarian carcinoma (RRID:CVCL_1629), , MCF-7 breast carcinoma (CRL-12584, RRID:CVCL_0031), MDA-MB-231 breast carcinoma (CRL-12532, RRID:CVCL_0062), NCI-H1876 small cell lung carcinoma (CRL-5902, RRID:CVCL_1503), NCI-H510A small cell lung carcinoma (HTB-184, RRID:CVCL_1565), NCI-H1417 (CRL-5869, RRID:CVCL_1469), and NCI-H196 small cell lung carcinoma (CRL-5823, RRID:CVCL_1509). Dr. Peter Houghton (Greehey Children's Cancer Research Institute, University of Texas Health Science Center, San Antonio, TX) provided Rh-18 rhabdomyosarcoma (RRID:CVCL_1659). Pooled donor human umbilical vein endothelial cells (HUVEC, Lonza, cat. CC-2519) and human mesenchymal stem cells (hMSC, Lonza, cat. PT-2501) were purchased from Lonza (Walkersville, MD).
Cell Culture. […]

[1] = second compound 0.00949 µM, first compound 0.00316 µM
[2] = second compound 0.00949 µM, first compound 0.01 µM
[3] = second compound 0.00949 µM, first compound 0.0316 µM
[4] = second compound 0.00949 µM, first compound 0.1 µM
[5] = second compound 0.00949 µM, first compound 0.316 µM
[6] = second compound 0.00949 µM, first compound 1 µM
[7] = second compound 0.03 µM, first compound 0.00316 µM
[8] = second compound 0.03 µM, first compound 0.01 µM
[9] = second compound 0.03 µM, first compound 0.0316 µM
[10] = second compound 0.03 µM, first compound 0.1 µM
[11] = second compound 0.03 µM, first compound 0.316 µM
[12] = second compound 0.03 µM, first compound 1 µM
[13] = second compound 0.0949 µM, first compound 0.00316 µM
[14] = second compound 0.0949 µM, first compound 0.01 µM
[15] = second compound 0.0949 µM, first compound 0.0316 µM
[16] = second compound 0.0949 µM, first compound 0.1 µM
[17] = second compound 0.0949 µM, first compound 0.316 µM
[18] = second compound 0.0949 µM, first compound 1 µM
[19] = second compound 0.3 µM, first compound 0.00316 µM
[20] = second compound 0.3 µM, first compound 0.01 µM
[21] = second compound 0.3 µM, first compound 0.0316 µM
[22] = second compound 0.3 µM, first compound 0.1 µM
[23] = second compound 0.3 µM, first compound 0.316 µM
[24] = second compound 0.3 µM, first compound 1 µM
[25] = second compound 0.949 µM, first compound 0.00316 µM
[26] = second compound 0.949 µM, first compound 0.01 µM
[27] = second compound 0.949 µM, first compound 0.0316 µM
[28] = second compound 0.949 µM, first compound 0.1 µM
[29] = second compound 0.949 µM, first compound 0.316 µM
[30] = second compound 0.949 µM, first compound 1 µM
[31] = second compound 3 µM, first compound 0.00316 µM
[32] = second compound 3 µM, first compound 0.01 µM
[33] = second compound 3 µM, first compound 0.0316 µM
[34] = second compound 3 µM, first compound 0.1 µM
[35] = second compound 3 µM, first compound 0.316 µM
[36] = second compound 3 µM, first compound 1 µM

SMILES: CCN1CCN(Cc2ccc(Nc3ncc(F)c(-c4cc(F)c5nc(C)n(C(C)C)c5c4)n3)nc2)CC1 + CCN1C(C(=O)NC23CCC(C(=O)O)(CC2)CC3)C(c2cccc(Cl)c2F)C2(C(=O)Nc3cc(Cl)ccc32)C12CCCCC2
- pIC50 (second compound 0.00949 µM): < 6.00
- pIC50 (second compound 0.03 µM): < 6.00
- pIC50 (second compound 0.0949 µM): > 8.50
- pIC50 (second compound 0.3 µM): > 8.50
- pIC50 (second compound 0.949 µM): > 8.50
- pIC50 (second compound 3 µM): > 8.50
- viability, T/C [1]: 99%
- viability, T/C [2]: 112%
- viability, T/C [3]: 90.4%
- viability, T/C [4]: 92.4%
- viability, T/C [5]: 85.6%
- viability, T/C [6]: 71.7%
- viability, T/C [7]: 120%
- viability, T/C [8]: 99.9%
- viability, T/C [9]: 88.2%
- viability, T/C [10]: 63.7%
- viability, T/C [11]: 59%
- viability, T/C [12]: 66.1%
- viability, T/C [13]: 53.9%
- viability, T/C [14]: 45.3%
- viability, T/C [15]: 41.8%
- viability, T/C [16]: 42.9%
- viability, T/C [17]: 40.3%
- viability, T/C [18]: 47.1%
- viability, T/C [19]: 31.8%
- viability, T/C [20]: 30.2%
- viability, T/C [21]: 27.7%
- viability, T/C [22]: 30.9%
- viability, T/C [23]: 34.5%
- viability, T/C [24]: 40.2%
- viability, T/C [25]: 20.6%
- viability, T/C [26]: 17.6%
- viability, T/C [27]: 20.5%
- viability, T/C [28]: 21.5%
- viability, T/C [29]: 24.9%
- viability, T/C [30]: 20%
- viability, T/C [31]: 13.1%
- viability, T/C [32]: 14%
- viability, T/C [33]: 14.8%
- viability, T/C [34]: 14.6%
- viability, T/C [35]: 12.7%
- viability, T/C [36]: 13.4%

SMILES: O=C(c1ccc(F)c(F)c1Nc1ccc(I)cc1F)N1CC(O)([C@@H]2CCCCN2)C1 + CCN1C(C(=O)NC23CCC(C(=O)O)(CC2)CC3)C(c2cccc(Cl)c2F)C2(C(=O)Nc3cc(Cl)ccc32)C12CCCCC2
- pIC50 (second compound 0.00949 µM): < 6.00
- pIC50 (second compound 0.03 µM): < 6.00
- pIC50 (second compound 0.0949 µM): > 8.50
- pIC50 (second compound 0.3 µM): > 8.50
- pIC50 (second compound 0.949 µM): > 8.50
- pIC50 (second compound 3 µM): > 8.50
- viability, T/C [1]: 104%
- viability, T/C [2]: 101%
- viability, T/C [3]: 111%
- viability, T/C [4]: 97.2%
- viability, T/C [5]: 94.9%
- viability, T/C [6]: 100%
- viability, T/C [7]: 105%
- viability, T/C [8]: 99.4%
- viability, T/C [9]: 93.9%
- viability, T/C [10]: 96.6%
- viability, T/C [11]: 81.4%
- viability, T/C [12]: 63.5%
- viability, T/C [13]: 50.6%
- viability, T/C [14]: 44%
- viability, T/C [15]: 46.5%
- viability, T/C [16]: 44.4%
- viability, T/C [17]: 44.8%
- viability, T/C [18]: 38.7%
- viability, T/C [19]: 32.1%
- viability, T/C [20]: 28%
- viability, T/C [21]: 26.7%
- viability, T/C [22]: 26.6%
- viability, T/C [23]: 33%
- viability, T/C [24]: 24.5%
- viability, T/C [25]: 16.4%
- viability, T/C [26]: 19.6%
- viability, T/C [27]: 14.8%
- viability, T/C [28]: 15.3%
- viability, T/C [29]: 13.4%
- viability, T/C [30]: 13.3%
- viability, T/C [31]: 14.3%
- viability, T/C [32]: 14.3%
- viability, T/C [33]: 9.2%
- viability, T/C [34]: 12.3%
- viability, T/C [35]: 14.2%
- viability, T/C [36]: 11%
